Here are results for 3 molecules from patent US20120135094A1, “OREGANO AND MINT ANTI-INFLAMMATORY COMPOSITIONS AND METHODS” (RUTGERS, THE STATE UNIVERSITY OF NEW JERSEY, priority 2009, published 2012).

Holding throughout (format): cell-based, murine
The test system of experiment [1] is iNOS protein in RAW 264.7 cells. The experiment is described as follows: Western Blotting of LPS-induced iNOS protein level. The following applies: test compounds 10 and 20 μg/mL, 24 h. Here is the method:
(§1) FIG. 5 illustrates effects of rosmarinic acid (RosA), oleanolic acid (OA), ursolic acid (UA) and indomethacin on LPS-induced iNOS and COX-2 protein levels in RAW 264.7 cells. The cells were treated with test compounds (10 and 20 μg/mL) for 24 h. Equal amounts of total proteins (50 μg) were subjected to 10% SDS-PAGE. The expression of iNOS, COX-2 and β-actin protein was detected by Western Blot using specific antibodies. Quantification of iNOS and COX-2 protein expression was performed by densitometric analysis of the immunoblot. The values below the figure represent the relative intensity in protein expression of the bands normalized to β-actin.
(§2) RAW 264.7 cells, derived from murine macrophages, were procured from the American Type Culture Collection (Rockville, Md.). The cells were cultured in RPMI-1640 (without phenol red) supplemented with 10% endotoxin-free, heat-inactivated fetal calf serum (GIBCO, Grand Island, N.Y.), 100 units/mL penicillin, and […] streptomycin. When the RAW 264.7 cells reached a density of 2-3×10^6 cells/mL, they were activated by incubation in the medium containing E. coli LPS (lipopolysaccharide, 100 ng/mL). Various concentrations of test compounds dissolved in DMSO (dimethylsulfoxide) were combined together with LPS. The cells were treated with 0.05% DMSO as vehicle control.
(§3) The total proteins, isolated from cells after treatment with test compounds for 24 h, were extracted via addition of 200 μL of gold lysis buffer (50 mM Tris-HCl, pH 7.4; 1 mM NaF; 150 mM NaCl; 1 mM EGTA; 1 mM phenylmethanesulfonyl fluoride; 1% NP-40; and 10 μg/mL leupeptin) to the cell pellets on ice for 30 min, followed by centrifugation for 30 min at 4° C. The cytosolic fraction (supernatant) proteins were measured by Bio-Rad Protein Assay (Bio-Rad Laboratories, Munich, Germany). The samples (50 μg of proteins) were mixed with 5-fold sample buffer containing 0.3 M Tris-HCl (pH 6.8), 25% 2-mercaptoethanol, 12% sodium dodecyl sulfate (SDS), 25 mM EDTA, 20% glycerol, and 0.1% bromophenol blue. […]
In general terms: Immunoblotting shows a protein as a band on a membrane.

Experiment [2] deals with COX-2 protein in RAW 264.7 cells. The experiment is described as follows: Western Blotting of LPS-induced COX-2 protein level. The following applies: test compounds 10 and 20 μg/mL, 24 h. Here is the method: as §1, §2, §3
Experiment [3] has as its system LPS-induced nitrite production in RAW 264.7 macrophages. The experiment is described as follows: LPS-induced nitrite production assay (Griess reaction). The conditions noted are these: concentration range of 10-100 μg/mL, dose-dependently; LPS 100 ng/mL, 24 h. Here is the method: FIG. 4 illustrates anti-inflammatory effect of rosmarinic acid (RosA), ursolic acid (UA) and oleanolic acid (OA) on LPS-induced nitrite production in RAW 264.7 macrophages. The cells were treated with 100 ng/mL of LPS only or with different concentrations of test compounds for 24 h. At the end of incubation time, 100 μL of the culture medium was collected for nitrite assay. The values are expressed as means±standard error of triplicate tests.
RAW 264.7 cells, derived from murine macrophages, were procured from the American Type Culture Collection (Rockville, Md.). The cells were cultured in RPMI-1640 (without phenol red) supplemented with 10% endotoxin-free, heat-inactivated fetal calf serum (GIBCO, Grand Island, N.Y.), 100 units/mL penicillin, and […] streptomycin. When the RAW 264.7 cells reached a density of 2-3×10^6 cells/mL, they were activated by incubation in the medium containing E. coli LPS (lipopolysaccharide, 100 ng/mL). […]
The RAW 264.7 cells were treated with various compounds and LPS or LPS only. The supernatants were harvested and the amount of nitrite, an indicator of NO synthesis, was measured using the Griess reaction. […] After incubation at room temperature for 10 min, absorbance at 570 nm was measured with the ELISA reader (Thermo Labsystems, Multiskan Ascent, Finland).
(In general: Griess reagent forms a coloured azo dye with nitrite.)

On to `CC1(C)CC[C@]2(C(=O)O)CC[C@]3(C)C(=CC[C@@H]4[C@@]5(C)CC[C@H](O)C(C)(C)[C@@H]5CC[C@]43C)[C@@H]2C1` [oleanolic acid], for which the iNOS protein expression entry in experiment [1] was “reduced expression of iNOS protein”. In addition, in experiment [2], the COX-2 protein expression result is given as “suppressed COX-2 protein expression”.

In the case of `O=C(/C=C/c1ccc(O)c(O)c1)O[C@H](Cc1ccc(O)c(O)c1)C(=O)O` [rosmarinic acid], the “suppression of NO generation” value in experiment [3] was 19-100%. In addition, in experiment [1], the iNOS protein expression entry is “reduced expression of iNOS protein”. For the same molecule, the COX-2 protein expression entry in experiment [2] is on record as “suppressed COX-2 protein expression”.

Consider `C[C@H]1[C@H](C)CC[C@]2(C(=O)O)CC[C@]3(C)C(=CC[C@@H]4[C@@]5(C)CC[C@H](O)C(C)(C)[C@@H]5CC[C@]43C)[C@H]12` [ursolic acid], for which, in experiment [1], the iNOS protein expression entry is “reduced expression of iNOS protein”. For the same molecule, the COX-2 protein expression result in experiment [2] was “suppressed COX-2 protein expression”.
